These results are taken from US20240376094A2, “SELECTIVE BCL-XL PROTAC COMPOUNDS AND METHODS OF USE” (Les Laboratoires Servier, priority 2021, published 2024).

SMILES strings stand for the structures. Where only a bound is given, the exact number is not on record here.

In test [1] the target is T1, Bcl-xL (Homo sapiens, UniProt Q07817).
T1 construct: Measured levels of Bcl-xL protein of HCT116 cells treated with the tested compounds; host or cells: HCT116
Nature of the test: HCT116 Bcl-xL degradation, capillary-based immunoassay (WES). The class given is cell-based. The following applies: HCT116, 24 h, 9-point serial dilution. As to the method: HCT116 cells were purchased from ATCC and cultivated in RPMI 1640 supplemented with 10% heat inactivated fetal bovine serum, penicillin (100 IU/mi), streptomycin (100 μg/ml) and L-glutamine (2 mM). Cells were cultured at 37° C. in a humidified atmosphere containing 5% CO2. Cells were seeded in 96 microwell plates, 24 h later cells were treated with compounds (2-point 10/100 nM and/or 9-point serial dilution to determine DC50; quadruplicates) during 24 h and harvested in lysis buffer containing 10 mM Hepes (pH 7.5), 150 mM KCl, 5 mM MgCl2, 1 mM EDTA, 0.4% TritonX100, protease and phosphatase inhibitors cocktails (Calbiochem).
Protein concentration in the supernatants was determined using the Pierce BCA protein assay kit (Thermo Fisher Scientific). Lysates (1.5 μg/μL) were analyzed using an automated capillary electrophoresis WES system with 2-40 kDa Wes Separation Module (25 capillary cartridges, Proteinsimple), in accordance with the manufacturer's protocols. Antibodies against the following proteins were used: Bcl-xL (#2764, Cell Signaling Technology, 1:50) and cofilin (#5175, Cell Signaling Technology, 1:1000). Signals were detected with an HRP-conjugated secondary anti-rabbit antibody (#042-206, Proteinsimple) and were quantified using Compass software (version 4.0, Proteinsimple).
Bcl-xL level was calculated by normalizing Bcl-xL values to cofilin and expressed as a percentage of the normalized value of the untreated cells. DC50 were calculated using standard four-parametric curve fitting. DC50 is defined as the compound concentration at which Bcl-xL is reduced to 50% of that measured for the control. Measured levels of Bcl-xL protein of HCT116 cells treated with the tested compounds at 2-point 10 nM/100 nM and/or 9-point for DC50 determination are shown in Table 15.

Test [2] deals with MOLT-4 cells. Nature of the test: MOLT-4 cell viability, CTG assay. It counts as cell-based. The conditions noted are these: Homo sapiens, MOLT-4, 48 h. The text has this: The MTT colorimetric assay is based on the mitochondrial reduction of tetrazolium salt by living cells. The viable cell number is proportional to the production of formazan salts, which can be read spectrophotometrically at 540 nm. The CTG luminescent assay (CellTiter GLO, Promega) is based on a reagent which lyses cells and measures total adenosine triphosphate (ATP) content. The viable cell number is proportional to the production of ATP.
MOLT-4 cells were purchased from ATCC and cultivated in RPMI 1640 supplemented with 10% heat inactivated fetal bovine serum, penicillin (100 IU/mi), streptomycin (100 μg/ml) and L-glutamine (2 mM). Cells were cultured at 37° C. in a humidified atmosphere containing 5% […].
For CTG assay, cells were seeded in 384 microwell plates (40 μL per well) and exposed to the compounds for 48 h (11-point serial dilution with 5-fold factor, triplicates). At the end of incubation time, 40 μL of CTG solution were added per well. Wells were mixed thoroughly, and plates were incubated at room temperature for 10 minutes to stabilize luminescent signals prior to reading using a luminescence reader (PHERAStar FSX Reader, BMG Labtech).
IC50, were calculated using standard four-parametric curve fitting. IC50 is defined as the compound concentration at which the MTT or CTG signal is reduced to 50% of that measured for the control. Results shown in Table 14 represent the mean of at least 2 independent experiments.

T1 sequence (Q07817 whole entry): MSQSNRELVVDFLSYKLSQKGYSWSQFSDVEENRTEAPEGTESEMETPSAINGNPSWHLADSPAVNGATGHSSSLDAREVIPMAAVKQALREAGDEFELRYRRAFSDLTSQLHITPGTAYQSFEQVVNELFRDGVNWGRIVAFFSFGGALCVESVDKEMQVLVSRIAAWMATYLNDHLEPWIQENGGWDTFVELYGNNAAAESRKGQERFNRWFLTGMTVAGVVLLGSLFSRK

In test [1], `Cc1cc(N(CCCCN(C)C(=O)CCCCCCCCNc2cccc3c2C(=O)N(C2CCC(=O)NC2=O)C3=O)c2ccc(-c3cnn(CC45CC6(C)CC(C)(C4)CC(OCCN(C)C)(C6)C5)c3C)c(C(=O)O)n2)nnc1Nc1nc2ccccc2s1` (centres unmarked) [Example 91, 6-[[6-(1,3-benzothiazol-2-ylamino)-5-methyl-pyridazin-3-yl]-[4-[9-[[2-(2,6-dioxo-3-piperidyl)-1,3-dioxo-isoindolin-4-yl]amino]nonanoyl-methyl-amino]butyl]amino]-3-[1-[[3-[2-(dimethylamino)ethoxy]-5,7-dimethyl-1-adamantyl]methyl]-5-methyl-pyrazol-4-yl]pyridine-2-carboxylic acid] returned a DC50 of 0.407 nM. The same compound registered an IC50 in test [2] of 12.7 nM.

Regarding `Cc1ncsc1-c1ccc(CNC(=O)[C@@H]2C[C@@H](O)CN2C(=O)[C@@H](NC(=O)C2(F)CC2)C(C)(C)C)c(OCCCCCCCCCCCCCCCN(C)CCOC23CC4(C)CC(C)(CC(Cn5ncc(-c6ccc(N7CCCc8c7nnc(Nc7nc9ccccc9s7)c8C)nc6C(=O)O)c5C)(C4)C2)C3)c1` [Example 83, 6-[3-(1,3-benzothiazol-2-ylamino)-4-methyl-6,7-dihydro-5H-pyrido[2,3-c]pyridazin-8-yl]-3-[1-[[3-[2-[15-[2-[[[(2S,4R)-1-[(2S)-2-[(1-fluorocyclopropanecarbonyl)amino]-3,3-dimethyl-butanoyl]-4-hydroxy-pyrrolidine-2-carbonyl]amino]methyl]-5-(4-methylthiazol-5-yl)phenoxy]pentadecyl-methyl-amino]ethoxy]-5,7-dimethyl-1-adamantyl]methyl]-5-methyl-pyrazol-4-yl]pyridine-2-carboxylic acid], in test [1], the DC50 stood at 4.49 nM. In addition, it took 4.72 nM to reach half-maximal inhibition in test [2] (IC50).

In test [1], `Cc1c(Nc2nc3ccccc3s2)nnc2c1CCCN2c1ccc(-c2cnn(CC34CC5(C)CC(C)(C3)CC(OCCN(C)CCCCCCCOc3ccc6c(c3)C(=O)N(C3CCC(=O)NC3=O)C6=O)(C5)C4)c2C)c(C(=O)O)n1` (centres unmarked) [Example 106, 6-[3-(1,3-benzothiazol-2-ylamino)-4-methyl-6,7-dihydro-5H-pyrido[2,3-c]pyridazin-8-yl]-3-[1-[[3-[2-[7-[2-(2,6-dioxo-3-piperidyl)-1,3-dioxo-isoindolin-5-yl]oxyheptyl-methyl-amino]ethoxy]-5,7-dimethyl-1-adamantyl]methyl]-5-methyl-pyrazol-4-yl]pyridine-2-carboxylic acid] returned a DC50 of 0.211 nM. Also, half-maximal inhibition in test [2] (IC50) was put at 2.63 nM.

For the compound `Cc1c(Nc2nc3ccccc3s2)nnc2c1CCCN2c1ccc(-c2cnn(CC34CC5(C)CC(C)(C3)CC(OCCN(C)CCCCCCCCOc3cccc6c3C(=O)N(C3CCC(=O)NC3=O)C6=O)(C5)C4)c2C)c(C(=O)O)n1` (centres unmarked) [Example 143, 6-[3-(1,3-benzothiazol-2-ylamino)-4-methyl-6,7-dihydro-5H-pyrido[2,3-c]pyridazin-8-yl]-3-[1-[[3-[2-[8-[2-(2,6-dioxo-3-piperidyl)-1,3-dioxo-isoindolin-4-yl]oxyoctyl-methyl-amino]ethoxy]-5,7-dimethyl-1-adamantyl]methyl]-5-methyl-pyrazol-4-yl]pyridine-2-carboxylic acid], the DC50 in test [1] was > 316 nM. In test [2], the IC50 was 5.28 nM.

Take `Cc1ncsc1-c1ccc([C@H](C)NC(=O)[C@@H]2C[C@@H](O)CN2C(=O)[C@@H](NC(=O)CCOCCOCCN(C)CCOC23CC4(C)CC(C)(CC(Cn5ncc(-c6ccc(N7CCCc8c7nnc(Nc7nc9ccccc9s7)c8C)nc6C(=O)O)c5C)(C4)C2)C3)C(C)(C)C)cc1` [Example 173, 6-[3-(1,3-benzothiazol-2-ylamino)-4-methyl-6,7-dihydro-5H-pyrido[2,3-c]pyridazin-8-yl]-3-[1-[[3-[2-[2-[2-[3-[[(1S)-1-[(2S,4R)-4-hydroxy-2-[[(1S)-1-[4-(4-methylthiazol-5-yl)phenyl]ethyl]carbamoyl]pyrrolidine-1-carbonyl]-2,2-dimethyl-propyl]amino]-3-oxo-propoxy]ethoxy]ethyl-methyl-amino]ethoxy]-5,7-dimethyl-1-adamantyl]methyl]-5-methyl-pyrazol-4-yl]pyridine-2-carboxylic acid]: in test [1], the DC50 was > 316 nM. Besides, the IC50 in test [2] turned out to be 35.6 nM.

Turning to `Cc1c(Nc2nc3ccccc3s2)nnc2c1CCCN2c1ccc(-c2cnn(CC34CC5(C)CC(C)(C3)CC(OCCN(C)CCCCCCCCCCC(=O)N3CCC(c6ccc7c(c6)CN(C6CCC(=O)NC6=O)C7=O)CC3)(C5)C4)c2C)c(C(=O)O)n1` (centres unmarked) [Example 75, 6-[3-(1,3-benzothiazol-2-ylamino)-4-methyl-6,7-dihydro-5H-pyrido[2,3-c]pyridazin-8-yl]-3-[1-[[3-[2-[[11-[4-[2-(2,6-dioxo-3-piperidyl)-1-oxo-isoindolin-5-yl]-1-piperidyl]-11-oxo-undecyl]-methyl-amino]ethoxy]-5,7-dimethyl-1-adamantyl]methyl]-5-methyl-pyrazol-4-yl]pyridine-2-carboxylic acid], in test [2], the IC50 was 5.85 nM.

Turning to `Cc1c(Nc2nc3ccccc3s2)nnc2c1CCCN2c1ccc(-c2cnn(CC34CC5(C)CC(C)(C3)CC(OCCN(C)CCCCCCCCCCCCCCCC(=O)N3CCC(c6ccc7c(c6)CN(C6CCC(=O)NC6=O)C7=O)CC3)(C5)C4)c2C)c(C(=O)O)n1` (centres unmarked) [Example 74, 6-[3-(1,3-benzothiazol-2-ylamino)-4-methyl-6,7-dihydro-5H-pyrido[2,3-c]pyridazin-8-yl]-3-[1-[[3-[2-[[16-[4-[2-(2,6-dioxo-3-piperidyl)-1-oxo-isoindolin-5-yl]-1-piperidyl]-16-oxo-hexadecyl]-methyl-amino]ethoxy]-5,7-dimethyl-1-adamantyl]methyl]-5-methyl-pyrazol-4-yl]pyridine-2-carboxylic acid], half-maximal degradation in test [1] (DC50) was put at 0.133 nM.

With `CN[C@@H](C)C(=O)N[C@H](C(=O)N1CCC[C@H]1c1nc(C(=O)c2cccc(OCCCCN(C)CCOC34CC5(C)CC(C)(CC(Cn6ncc(-c7ccc(N8CCCc9c8nnc(Nc8nc%10ccccc%10s8)c9C)nc7C(=O)O)c6C)(C5)C3)C4)c2)cs1)C1CCCCC1` [Example 99, 6-[3-(1,3-benzothiazol-2-ylamino)-4-methyl-6,7-dihydro-5H-pyrido[2,3-c]pyridazin-8-yl]-3-[1-[[3-[2-[4-[3-[2-[(2S)-1-[(2S)-2-cyclohexyl-2-[[(2S)-2-(methylamino)propanoyl]amino]acetyl]pyrrolidin-2-yl]thiazole-4-carbonyl]phenoxy]butyl-methyl-amino]ethoxy]-5,7-dimethyl-1-adamantyl]methyl]-5-methyl-pyrazol-4-yl]pyridine-2-carboxylic acid], in test [2], the midpoint of inhibition, the IC50, lay at 4.54 nM.

`CN[C@@H](C)C(=O)N[C@H](C(=O)N1CCC[C@H]1c1nc(C(=O)c2cccc(OCCCCCCCCCCCCCCN(C)CCOC34CC5(C)CC(C)(CC(Cn6ncc(-c7ccc(N8CCCc9c8nnc(Nc8nc%10ccccc%10s8)c9C)nc7C(=O)O)c6C)(C5)C3)C4)c2)cs1)C1CCCCC1` [Example 100, 6-[3-(1,3-benzothiazol-2-ylamino)-4-methyl-6,7-dihydro-5H-pyrido[2,3-c]pyridazin-8-yl]-3-[1-[[3-[2-[14-[3-[2-[(2S)-1-[(2S)-2-cyclohexyl-2-[[(2S)-2-(methylamino)propanoyl]amino]acetyl]pyrrolidin-2-yl]thiazole-4-carbonyl]phenoxy]tetradecyl-methyl-amino]ethoxy]-5,7-dimethyl-1-adamantyl]methyl]-5-methyl-pyrazol-4-yl]pyridine-2-carboxylic acid] yielded an IC50 in test [2] of 8.41 nM.

As usually defined, the DC50 is the concentration giving 50% degradation. High values mean degradation only at high concentration, low ones degradation at low concentration. By IC50 is commonly meant the concentration that gives 50% inhibition. Higher therefore signals weaker potency.
